“Also recorded” adds a separate entry of the source. Marks after values point to notes of the source that are not given here.
Tests used:
[1] = system: MK-801-induced memory/learning dysfunctions; assay: Step-through passive avoidance response test, MK-801-induced memory/learning dysfunctions; assay type: in vivo, Wistar male rats
Experimental: Wistar male rats (7 weeks old) were used. […] Serotonin 5-HT 1A receptor antagonist WAY-100635 or noradrenaline a2 receptor antagonist 1-PP was dissolved in a physiological saline solution (Otsuka Pharmaceutical Co., Ltd.) and used as a test compound. As an NMDA type receptor antagonist, MK-801 hydrogen maleate (SIGMA-ALDRICH M-107) was dissolved in a physiological saline solution (Otsuka Pharmaceutical Co., Ltd.). […] For the evaluation of state-dependency of MC-801, MK-801 was administered before the training session, and a physiological saline solution was administered before the testing session instead. The dosing value thereof was 5 ml/kg for each.
The step-through type passive avoidance response test was carried out in the following manners with the use of an apparatus consisting of a light-dark box, a slide door dividing the light-dark box and a shock generator (manufactured by O'hara & Co., Ltd., PA-2030A, PA-3001A) as an experimental apparatus. Namely, on Day 1 of the experiment, after a test compound and MK-801 were administered, the rats were put into the light box of the experimental apparatus where the back of each rat was directed to the dark box. Then, 10 seconds later, a slide door set at the border between the dark box and the light box was opened. Due to the habits of the rats, once the rats entered into the dark box, the slide door was quickly closed. At three seconds after entering into the dark box, an electroconvulsive shock ([…], for 3 seconds) was given to the rats. The period between the time just after the slide door was opened and the time at which the rats entered into the dark box was measured as a step-through latency. […] On Day 2 of the experiment, the testing session was carried out about 24 hours after the training session. Thirty minutes prior to the testing session, MK-801 or a vehicle thereof, i.e., a physiological saline solution, was subcutaneously administered to the rats. The procedures of the testing session were carried out in the same manner to the training session except that no electroconvulsive shock was given. The step-through latency at the testing session was measured up to 300 seconds, and the step-through latency over 300 seconds was regarded as 300 seconds. […] The statistical analysis of the % of animals avoiding was done by x^2 test with Bonferroni's correction. The animals were used in a group of 10 to 25 animals per group, and the data was expressed by percentage.

[2] = system: memory/learning dysfunctions in the passive avoidance response; assay: Passive avoidance response test, drug administered alone without MK-801; assay type: in vivo, Wistar male rats; details: drug alone without MK-801, passive avoidance response, rats
Experimental: Then, 10 seconds later, a slide door set at the border between the dark box and the light box was opened. Due to the habits of the rats, once the rats entered into the dark box, the slide door was quickly closed. At three seconds after entering into the dark box, an electroconvulsive shock ([…], for 3 seconds) was given to the rats. The period between the time just after the slide door was opened and the time at which the rats entered into the dark box was measured as a step-through latency. […] On Day 2 of the experiment, the testing session was carried out about 24 hours after the training session. […] The procedures of the testing session were carried out in the same manner to the training session except that no electroconvulsive shock was given. The step-through latency at the testing session was measured up to 300 seconds, and the step-through latency over 300 seconds was regarded as 300 seconds. […] The statistical analysis of the % of animals avoiding was done by x^2 test with Bonferroni's correction. The animals were used in a group of 10 to 25 animals per group, and the data was expressed by percentage.

[3] = system: methamphetamine-induced hyperponesis; details: rats; reflects anti-psychotic activity; cited from earlier work
[4] = MK-801 administered only in the training session
[5] = MK-801 prior to both training and testing sessions, MK-801 + drug 1 mg/kg p.o.
[6] = MK-801 prior to both training and testing sessions, MK-801 + drug 3 mg/kg p.o.
[7] = MK-801 prior to training session only, MK-801 + drug 3 mg/kg p.o.
[8] = MK-801 administered in both training and testing sessions
[9] = MK-801 prior to both training and testing sessions, MK-801 + drug 0.3 mg/kg p.o.
[10] = MK-801 prior to both training and testing sessions, MK-801 + drug 10 mg/kg p.o.
[11] = MK-801 prior to both training and testing sessions, MK-801 + drug 0.1 mg/kg p.o.

Row | SMILES | % of animals avoiding [1, 5] | % of animals avoiding [1, 6] | drug efficacy on memory dysfunction (in words) [1, 8] | Minimum dose to induce memory dysfunction by single application [2] | % of animals avoiding [1, 9] | % of animals avoiding [1, 10] | also measured
1 | Cl.Cl.c1cnc(N2CCNCC2)nc1 [1-PP, 1-(2-pyrimidyl)piperazine dihydrochloride] | 47* % | 67* % | – | – | – | – | drug efficacy on memory dysfunction (in words) ([1]; MK-801 administered in both training and testing sessions, dihydrochloride): memory/learning improving efficacy is recognized; also recorded: a significant improving activity was observed; drug efficacy on memory dysfunction (in words) [1, 4]: no drug efficacy; % of animals avoiding [1, 7]: 8%
2 | O=C1CCc2ccc(OCCCCN3CCN(c4cccc(Cl)c4Cl)CC3)cc2N1 [Aripiprazole, aripiprazole] | 16% | 16% | no drug efficacy was observed | 10 mg/kg, p.o | – | – | –
3 | CN1CCN(C2=Nc3cc(Cl)ccc3Nc3ccccc32)CC1 [Clozapine, clozapine] | 36* % | 20% | – | 10 mg/kg, p.o | 44* % | 10% | –
4 | O=C(CCCN1CCC(O)(c2ccc(Cl)cc2)CC1)c1ccc(F)cc1 [Haloperidol] | 15% | 10% | no drug efficacy was observed | 10 mg/kg, p.o | 5% | – | % of animals avoiding [1, 11]: 0%
5 | O=C1[C@@H]2[C@H]3CC[C@H](C3)[C@@H]2C(=O)N1C[C@@H]1CCCC[C@H]1CN1CCN(c2nsc3ccccc23)CC1 [Lurasidone, lurasidone] | 35* % | 75* % | memory/learning improving efficacy is recognized; also recorded: a significant improving activity was observed | >30 mg/kg, p.o | 40* % | 70* % | drug efficacy on memory dysfunction (in words) [1, 4]: no drug efficacy; % of animals avoiding ([1]; MK-801 prior to training session only, MK-801 + drug 0.3 mg/kg p.o.): 20%; % of animals avoiding ([1]; MK-801 prior to training session only, MK-801 + drug 1 mg/kg p.o.): 20%; % of animals avoiding [1, 7]: 30%; % of animals avoiding ([1]; MK-801 prior to training session only, MK-801 + drug 10 mg/kg p.o.): 20%
6 | C[C@]12N[C@H](Cc3ccccc31)c1ccccc12 [MK-801] | – | – | – | – | – | – | % of animals avoiding, group treated with MK-801 ([1]; MK-801 0.05 mg/kg s.c. alone, administered prior to training session only): 0%; step-through latency (in words) ([1]; MK-801 before training session and saline before testing session, compared with MK-801 in both sessions): nearly equal decrease in the step-through latency
7 | Cc1cc2c(s1)Nc1ccccc1N=C2N1CCN(C)CC1 [Olanzapine, olanzapine] | 20% | 20% | – | – | 15% | 10% | –
8 | OCCOCCN1CCN(C2=Nc3ccccc3Sc3ccccc32)CC1 [Quetiapine, quetiapine] | 20% | 30% | memory/learning improving efficacy is recognized; also recorded: a significant improving activity was observed | 30 mg/kg, p.o | 10% | 50* % | dose to inhibit 50% of methamphetamine-induced hyperponesis (ED50) [3]: about 100 mg/kg, p.o.
9 | Cc1nc2n(c(=O)c1CCN1CCC(c3noc4cc(F)ccc34)CC1)CCCC2 [Risperidone, risperidone] | 28% | 10% | memory/learning improving efficacy is recognized | 3 mg/kg, p.o | 20% | – | % of animals avoiding [1, 11]: 20%
10 | COc1ccccc1N1CCN(CCN(C(=O)C2CCCCC2)c2ccccn2)CC1 [WAY-1000635] | 40* % | 30% | – | – | 30% | – | drug efficacy on memory dysfunction (in words) ([1]; MK-801 administered in both training and testing sessions, listed as WAY-100635): a significant improving activity was observed; drug efficacy on memory dysfunction (in words) ([1]; MK-801 administered in both training and testing sessions, listed as serotonin 5-HT 1A receptor antagonist): memory/learning improving efficacy is recognized

— patent publication US8835438B2, “Method of treating memory/learning dysfunctions caused by schizophrenia with lurasidone” (Sumitomo Dainippon Pharma Co., Ltd., priority 2004, dated 2014)
